From patent US9643953B2, “Substituted benzylpyrazoles” (Bayer Intellectual Property GmbH, priority 2011, dated 2017)
Like-named read-outs stand apart in the source and are kept apart here.

How the values were obtained:
HeLa cell line = assay: Proliferation assay (HeLa cell line);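 also: crystal violet staining of cell number, absorbance read at 595 nm, compounds tested at 0.001–10 µM, zero-point plate taken as 0% and untreated cells as 100%, four-parameter fit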
Experimental: Cultivated tumor cells (cells were ordered from ATCC, except HeLa-MaTu and HeLa-MaTu-ADR, which were ordered from EPO-GmbH, Berlin) were plated at a density of 1000 to 5000 cells/well, depending on the growth rate of the respective cell line, in a 96-well multititer plate in 200 μL of their respective growth medium supplemented 10% fetal calf serum. After 24 hours, the cells of one plate (zero-point plate) were stained with crystal violet (see below), while the medium of the other plates was replaced by fresh culture medium (200 μl), to which the test substances were added in various concentrations (0 μM, as well as in the range of 0.001-10 μM; the final concentration of the solvent dimethyl sulfoxide was 0.5%). The cells were incubated for 4 days in the presence of test substances. Cell proliferation was determined by staining the cells with crystal violet: the cells were fixed by adding 20 μl/measuring point of an 11% glutaric aldehyde solution for 15 minutes at room temperature. After three washing cycles of the fixed cells with water, the plates were dried at room temperature. The cells were stained by adding 100 μl/measuring point of a 0.1% crystal violet solution (pH 3.0). After three washing cycles of the stained cells with water, the plates were dried at room temperature. The dye was dissolved by adding 100 μl/measuring point of a 10% acetic acid solution. Absorption was determined by photometry at a wavelength of 595 nm. The change of cell number, in percent, was calculated by normalization of the measured values to the absorption values of the zero-point plate (=0%) and the absorption of the untreated (0 μm) cells (=100%). The IC50 values were determined by means of a 4 parameter fit.

[1] = target: T1, catalytic domain of human Bub1 (amino acids 704-1085) (Homo sapiens, UniProt O43683); assay: Bub1 kinase assay (TR-FRET); format: biochemical; settings: ATP 10 μM, peptide substrate 1 μM, 60 min at 22° C.
T1 construct: catalytic domain of human Bub1 (amino acids 704-1085); His6 (N); made in house; host or cells: Hi5 insect cells
T1 sequence (O43683 704-1085): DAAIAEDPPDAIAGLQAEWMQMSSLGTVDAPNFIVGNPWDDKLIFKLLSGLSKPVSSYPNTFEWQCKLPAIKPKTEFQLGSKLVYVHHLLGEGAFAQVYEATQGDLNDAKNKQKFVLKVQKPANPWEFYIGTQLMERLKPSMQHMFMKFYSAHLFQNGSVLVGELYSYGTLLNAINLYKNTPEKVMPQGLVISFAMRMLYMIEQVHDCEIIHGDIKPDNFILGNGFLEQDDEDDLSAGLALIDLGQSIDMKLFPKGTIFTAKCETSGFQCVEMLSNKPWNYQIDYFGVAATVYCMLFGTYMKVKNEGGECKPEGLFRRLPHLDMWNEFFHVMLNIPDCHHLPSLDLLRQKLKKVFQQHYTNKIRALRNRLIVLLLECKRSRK
Experimental: To this end, 100-fold concentrated compound solutions (in DMSO) were previously prepared by serial dilution (1:3.4) of 2 mM stocks in a clear low volume 384-well source microtiter plate (Greiner Bio-One, Frickenhausen, Germany), from which 50 nl of compounds were transferred into a black low volume test microtiter plate from the same supplier. […] The resulting mixture (5 μl final volume) was incubated at 22° C. during 60 min., and the reaction was stopped by the addition of 5 μl of an aqueous EDTA-solution (50 mM EDTA, in 100 mM HEPES pH 7.5 and 0.2% (w/v) bovine serum albumin) which also contained the TR-FRET detection reagents (0.2 μM streptavidin-XL665 [Cisbio Bioassays, Codolet, France] and 1 nM anti-phosho-Serine antibody [Merck Millipore, cat. #35-001] and 0.4 nM LANCE EU-W1024 labeled anti-mouse IgG antibody [Perkin-Elmer, product no. AD0077, alternatively a Terbium-cryptate-labeled anti-mouse IgG antibody from Cisbio Bioassays can be used]). The stopped reaction mixture was further incubated 1 h at 22° C. in order to allow the formation of complexes between peptides and detection reagents. Subsequently, the amount of product was evaluated by measurement of the resonance energy transfer from the Eu-chelate-antibody complex recognizing the Phosphoserine residue to the streptavidin-XL665 bound to the biotin moiety of the peptide. […] IC50 values were calculated by fitting the normalized inhibition data to a 4-parameter logistic equation (Minimum, Maximum, IC50, Hill; Y=Max+(Min−Max)/(1+(X/IC50)Hill)).

[2] = Homo sapiens, HeLa, 96 h, read-out: Biological Assay 2: Proliferation assay (HeLa cell line) median IC50, HeLa cells, 4 days incubation, crystal violet staining
[3] = TR-FRET, read-out: Biological Assay 1: Bub1 kinase assay median IC50
[4] = Homo sapiens, HeLa, 96 h, read-out: Biological Assay 2: Proliferation assay (HeLa cell line) median IC50
[5] = Biological Assay 1: Bub1 kinase assay median IC50, TR-FRET

| SMILES | IC50 [1, 3] | IC50 (HeLa cell line; [4]) | other results |
| --- | --- | --- | --- |
| CCOc1cc(F)c(Cn2nc(-c3ncc(OCC[S+](C)[O-])c(Nc4ccncc4)n3)c(C)c2C2CC2)c(F)c1 (racemic) [Example 2-8-1, 2-[5-cyclopropyl-1-(4-ethoxy-2,6-difluorobenzyl)-4-methyl-1H-pyrazol-3-yl]-5-[2-(methylsulfinyl)ethoxy]-N-(pyridin-4-yl)pyrimidin-4-amine] | 4.19 nM | – | IC50 (HeLa cell line; [2]): 3930 nM |
| CCOc1cc(F)c(Cn2nc(-c3ncc(OCC4CCC(=O)N4)c(Nc4ccncc4)n3)c(C)c2C2CC2)c(F)c1 (single isomer, unassigned; enantiomer 1) [Example 2-3-6, 5-[({2-[5-cyclopropyl-1-(4-ethoxy-2,6-difluorobenzyl)-4-methyl-1H-pyrazol-3-yl]-4-(pyridin-4-ylamino)pyrimidin-5-yl}oxy)methyl]pyrrolidin-2-one enantiomer 1] | 8.14 nM | – | IC50 (HeLa cell line; [2]): 2970 nM |
| CCOc1cc(F)c(Cn2nc(-c3ncc(OCC[S+](C)[O-])c(Nc4ccncc4)n3)c(C)c2C2CC2)c(F)c1 (single isomer, unassigned; enantiomer 1) [Example 2-8-2, 2-[5-cyclopropyl-1-(4-ethoxy-2,6-difluorobenzyl)-4-methyl-1H-pyrazol-3-yl]-5-[2-(methylsulfinyl)ethoxy]-N-(pyridin-4-yl)pyrimidin-4-amine enantiomer 1] | 3.96 nM | – | – |
| CCOc1cc(F)c(Cn2nc(-c3ncc(OCC4CCC(=O)N4)c(Nc4ccncc4)n3)c(C)c2C2CC2)c(F)c1 (single isomer, unassigned; enantiomer 2) [Example 2-3-7, 5-[({2-[5-cyclopropyl-1-(4-ethoxy-2,6-difluorobenzyl)-4-methyl-1H-pyrazol-3-yl]-4-(pyridin-4-ylamino)pyrimidin-5-yl}oxy)methyl]pyrrolidin-2-one enantiomer 2] | 12.1 nM | – | IC50 (HeLa cell line; read-out: Biological Assay 2: Proliferation assay (HeLa cell line) median IC50, HeLa cells, 4 days incubation, crystal violet staining): 2890 nM |
| CCOc1cc(F)c(Cn2nc(-c3ncc(OCC[S+](C)[O-])c(Nc4ccncc4)n3)c(C)c2C2CC2)c(F)c1 (single isomer, unassigned; enantiomer 2) [Example 2-8-3, 2-[5-cyclopropyl-1-(4-ethoxy-2,6-difluorobenzyl)-4-methyl-1H-pyrazol-3-yl]-5-[2-(methylsulfinyl)ethoxy]-N-(pyridin-4-yl)pyrimidin-4-amine enantiomer 2] | 6.17 nM | – | – |
| CCOc1cc(F)c(Cn2nc(-c3ncc(OC)c(Nc4ccncc4)n3)c(C)c2OC)c(F)c1 [Example 2-1-1, 2-[1-(4-ethoxy-2,6-difluorobenzyl)-5-methoxy-4-methyl-1H-pyrazol-3-yl]-5-methoxy-N-(pyridin-4-yl)pyrimidin-4-amine] | – | 7380 nM | IC50 [1, 5]: 6.14 nM |
| COc1cnc(-c2cc(N(C)C)n(Cc3ccccc3F)n2)nc1Nc1ccncc1 [Example 2-1-2, 2-[5-(dimethylamino)-1-(2-fluorobenzyl)-1H-pyrazol-3-yl]-5-methoxy-N-(pyridin-4-yl)pyrimidin-4-amine] | 1150 nM | > 10000 nM | – |
| COc1cnc(-c2cc(OC)n(Cc3ccccc3F)n2)nc1Nc1ccncc1 [Example 2-1-3, 2-[1-(2-fluorobenzyl)-5-methoxy-1H-pyrazol-3-yl]-5-methoxy-N-(pyridin-4-yl)pyrimidin-4-amine] | 381 nM | > 10000 nM | – |
| CCOc1cc(-c2ncc(OC)c(Nc3ccncc3)n2)nn1Cc1ccccc1F [Example 2-1-4, 2-[5-ethoxy-1-(2-fluorobenzyl)-1H-pyrazol-3-yl]-5-methoxy-N-(pyridin-4-yl)pyrimidin-4-amine] | 638 nM | > 10000 nM | – |
| COc1cnc(-c2cc(C3CC3)n(Cc3ccccc3)n2)nc1Nc1ccncc1 [Example 2-1-5, 2-(1-benzyl-5-cyclopropyl-1H-pyrazol-3-yl)-5-methoxy-N-(pyridin-4-yl)pyrimidin-4-amine] | 516 nM | > 10000 nM | – |
| C=Cc1cc(-c2ncc(OC)c(Nc3ccncc3)n2)nn1Cc1ccccc1 [Example 2-1-6, 2-(1-benzyl-5-ethenyl-1H-pyrazol-3-yl)-5-methoxy-N-(pyridin-4-yl)pyrimidin-4-amine] | 517 nM | > 10000 nM | – |
| COc1cnc(-c2cc(OC)n(Cc3ccccc3F)n2)nc1Nc1ccncc1C#N [Example 2-1-7, 4-({2-[1-(2-fluorobenzyl)-5-methoxy-1H-pyrazol-3-yl]-5-methoxypyrimidin-4-yl}amino)pyridine-3-carbonitrile] | 1420 nM | > 10000 nM | – |
| COc1ccc(Cn2nc(-c3ncc(OC)c(Nc4ccncc4)n3)cc2C2CC2)cc1 [Example 2-1-8, 2-[5-cyclopropyl-1-(4-methoxybenzyl)-1H-pyrazol-3-yl]-5-methoxy-N-(pyridin-4-yl)pyrimidin-4-amine] | 73.8 nM | > 10000 nM | – |
| COc1cnc(-c2nn(Cc3c(Cl)cccc3Cl)c(C3CC3)c2C)nc1Nc1ccncc1 [Example 2-1-9, 2-[5-cyclopropyl-1-(2,6-dichlorobenzyl)-4-methyl-1H-pyrazol-3-yl]-5-methoxy-N-(pyridin-4-yl)pyrimidin-4-amine] | 5.76 nM | > 10000 nM | – |
| COc1cnc(-c2nn(Cc3ccccc3F)c(C3CC3)c2C)nc1Nc1ccncc1 [Example 2-1-10, 2-[5-cyclopropyl-1-(2-fluorobenzyl)-4-methyl-1H-pyrazol-3-yl]-5-methoxy-N-(pyridin-4-yl)pyrimidin-4-amine] | 36.5 nM | 3490 nM | – |
| COc1cnc(-c2nn(Cc3c(Cl)cccc3Cl)c(OC)c2C)nc1Nc1ccncc1 [Example 2-1-11, 2-[1-(2,6-dichlorobenzyl)-5-methoxy-4-methyl-1H-pyrazol-3-yl]-5-methoxy-N-(pyridin-4-yl)pyrimidin-4-amine] | 7.86 nM | 2740 nM | – |
| CCOc1cc(F)c(Cn2nc(-c3ncc(O)c(Nc4ccncc4)n3)c(C)c2C2CC2)c(F)c1 [Example 2-2-1, 2-[5-cyclopropyl-1-(4-ethoxy-2,6-difluorobenzyl)-4-methyl-1H-pyrazol-3-yl]-4-(pyridin-4-ylamino)pyrimidin-5-ol] | – | – | IC50 [1, 5]: 6.2 nM |
| CCOc1cc(F)c(Cn2nc(-c3ncc(OC)c(Nc4ccncc4)n3)c(C)c2N(C)C)c(F)c1 [Example 2-6-2, 2-[5-(dimethylamino)-1-(4-ethoxy-2,6-difluorobenzyl)-4-methyl-1H-pyrazol-3-yl]-5-methoxy-N-(pyridin-4-yl)pyrimidin-4-amine] | – | – | IC50 [1, 5]: 12.6 nM |
| CCOc1cc(F)c(Cn2nc(-c3ncc(OC)c(Nc4ccncc4C#N)n3)c(C)c2C2CC2)c(F)c1 [Example 2-6-4, 4-({2-[5-cyclopropyl-1-(4-ethoxy-2,6-difluorobenzyl)-4-methyl-1H-pyrazol-3-yl]-5-methoxypyrimidin-4-yl}amino)nicotinonitrile] | – | – | IC50 [1, 5]: 48.6 nM |
| CCOC(=O)c1cnccc1Nc1nc(-c2nn(Cc3c(F)cc(OCC)cc3F)c(C3CC3)c2C)ncc1OC [Example 2-6-5, ethyl 4-({2-[5-cyclopropyl-1-(4-ethoxy-2,6-difluorobenzyl)-4-methyl-1H-pyrazol-3-yl]-5-methoxypyrimidin-4-yl}amino)nicotinate] | – | – | IC50 [1, 5]: 27.4 nM |
| CCOc1cc(F)c(Cn2nc(-c3ncc(OC)c(Nc4ccncc4C(=O)O)n3)c(C)c2C2CC2)c(F)c1 [Example 2-11-1, 4-({2-[5-cyclopropyl-1-(4-ethoxy-2,6-difluorobenzyl)-4-methyl-1H-pyrazol-3-yl]-5-methoxypyrimidin-4-yl}amino)nicotinic acid] | – | – | IC50 [1, 5]: 26.8 nM |

The next lines start with results.

| IC50 [1, 3] | IC50 (HeLa cell line; [4]) | SMILES | other results |
| --- | --- | --- | --- |
| 15.1 nM | – | COc1ccc(Cn2nc(-c3ncc(OC)c(Nc4ccncc4)n3)c(C)c2C2CC2)cc1 [Example 2-6-1, 2-[5-cyclopropyl-1-(4-methoxybenzyl)-4-methyl-1H-pyrazol-3-yl]-5-methoxy-N-(pyridin-4-yl)pyrimidin-4-amine] | – |
| – | 9350 nM | CCOc1cc(F)c(Cn2nc(-c3ncc(C#N)c(Nc4ccncc4)n3)c(C)c2C2CC2)c(F)c1 [Example 2-6-3, 2-[5-cyclopropyl-1-(4-ethoxy-2,6-difluorobenzyl)-4-methyl-1H-pyrazol-3-yl]-4-(pyridin-4-ylamino)pyrimidine-5-carbonitrile] | – |
| 8.62 nM | – | COc1cnc(-c2nn(Cc3c(F)cc(C4CC4)cc3F)c(C3CC3)c2C)nc1Nc1ccncc1 [Example 2-7-1, 2-[5-cyclopropyl-1-(4-cyclopropyl-2,6-difluorobenzyl)-4-methyl-1H-pyrazol-3-yl]-5-methoxy-N-(pyridin-4-yl)pyrimidin-4-amine] | – |
| 6.79 nM | – | COc1cnc(-c2nn(Cc3c(F)cc(OC(F)F)cc3F)c(C3CC3)c2C)nc1Nc1ccncc1 [Example 2-10-1, 2-{5-cyclopropyl-1-[4-(difluoromethoxy)-2,6-difluorobenzyl]-4-methyl-1H-pyrazol-3-yl}-5-methoxy-N-(pyridin-4-yl)pyrimidin-4-amine] | – |
